# Measured values taken from patent US8128943B2, “Use of oxazole derivatives for controlling fish parasites” (Novartis AG, priority 2005, dated 2012).
# Columns and labels:
# sea lice = settings: in sea water; cited from earlier work
# salmon lice [1] = assay: Toxicity to salmon lice, contact action test in sea water beakers; assay type: in vivo, salmon louse; settings: after 24 hours; lowest concentration of 5 μg/l in sea water, 10° C.; adult salmon lice
# Experimental: Biological Examples 1. Toxicity to Salmon Lice (In Vitro Test) a) Collecting and Cultivating the Salmon Lice
# Adult and pre-adult stages of the salmon louse are gently removed with broad forceps from naturally infected Atlantic salmon which have been kept in fish farms, separated according to stage and sex, and kept in sea water tanks at 10° C. and under continuous aeration. The sea water used for cultivating the lice comes from the fish farm from which the infected salmon have been taken. The tests themselves are carried out over 48 hours after collecting the lice.
# b) In Vivo Test for Determining the Contact Action of the Control Agent
# Into each of three test sets of three 500 ml-glass beakers, filled with sea water (salinity […], temperature 10° C.) containing 5, 500 and 5000 μg/l of the active substance, respectively, 5 female and 5 male adults of salmon lice are added. The beaker are then transferred to an incubator and held at 10° C. for 48 hours in the dark. Live survival of the salmon lice is determined at 1, 24 and 48 hours from the start of the exposure. All lice are examined and recorded as alive, moribund or dead.
# salmon lice [2] = assay: Toxicity against salmon lice (in vivo test) on naturally infected Atlantic salmon, bath treatment; settings: long lasting tests on salmon; one single treatment at 0.1 ppm
# Experimental: 2. Toxicity Against Salmon Lice (In Vivo Test)
# Five naturally infected Atlantic salmon are taken from the cage and transferred to well aerated sea water tanks. They remain there for 48 hours for acclimatization, and feed is withheld for 24 hours before the addition of test compound. A group of 5 salmon is treated at a concentration of 1.0 ppm of test compound, and a second group of 5 salmon is treated at a concentration of 0.1 ppm. The fish are kept for 24 hours in fresh sea water (without test compound) and a count is then made of dead and still living parasites. An untreated group of fish is also included in the evaluation. The test is carried out in triplicate.
# fish = assay: Tolerance by fish in long lasting tests on salmon; assay type: in vivo
Compound,concentration required / effective to combat sea lice (sea lice) [ppm],survival rate (salmon lice [1]) [%],other results
"COP(=O)(OC)OC=C(Cl)Cl [Dichlorvos, 2,2-dichloroethenyldimethyl phosphate]",≥ 1,,
"FC(F)(F)c1ccc(-c2ccc(C3COC(c4c(Cl)cccc4Cl)=N3)cc2)cc1 (centres unmarked) [2-(2,6-Dichlorophenyl)-4-(4′-trifluoromethylbiphenyl-4-yl)-4,5-dihydro-oxazole]",,0,
"Fc1cccc(F)c1C1=NC(c2ccc(-c3ccc(C(F)(F)F)cc3)cc2)CO1 (centres unmarked) [2-(2,6-Difluorophenyl)-4-(4′-trifluoromethylbiphenyl-4-yl)-4,5-dihydro-oxazole]",,0,control (salmon lice [2]): 100%; duration of 100% control (salmon lice [2]): at least 3 month; tolerance by fish (fish): well tolerated by fish
"Fc1cccc(Cl)c1C1=NC(c2ccc(-c3ccc(C(F)(F)F)cc3)cc2)CO1 (centres unmarked) [2-(2-Chloro-6-fluorophenyl)-4-(4′-trifluoromethylbiphenyl-4-yl)-4,5-dihydro-oxazole]",,0,
"COP(=O)(OC)C(O)C(Cl)(Cl)Cl (centres unmarked) [Trichlorfon, dimethyl-2,2,2-trichloro-1-hydroxyethylphosphonate]",300,,
